Patent US20180057505A1, “BICYCLIC HETEROARYL COMPOUNDS USEFUL AS INHIBITORS OF THE PAR-2 SIGNALING PATHWAY” (VERTEX PHARMACEUTICALS INCORPORATED, priority 2015, published 2018)

How the values were obtained:
Type in all cases: cell-based
[1] = test system: Thrombin-stimulated Ca2+ response in HT-29 cells; experiment: Ca FLIPR TETRA assay, ANTAGONIST mode, activator 1 U/mL Thrombin; details: Homo sapiens; HT-29 cells, activator 1 U/mL Thrombin
How it was run: (§1)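 HT-29 cells plated overnight at 37 °C in 1% FBS/McCoy's, loaded with calcium 5 dye (45 min 37 °C, 15 min r.t.), then preincubated with compounds 30 min at r.t. before a fixed activator challenge. Intracellular Ca2+ read by FLIPR Tetra; a first read checks compound-alone activation.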

PAR2 (HT-29 cells) [2] = target: T1, PAR2 (HT-29 cells) (Homo sapiens, UniProt P55085); experiment: Ca FLIPR TETRA assay, ANTAGONIST mode, activator 3.1 U/mL trypsin; details: for IC50: HT-29 cells, activator 3.1 U/mL trypsin, maximal antagonist concentration per Method (A: 0.1, 1 or 2 μM; B: 50 μM)
T1 construct: host or cells: HT-29
T1 sequence (P55085 26-397): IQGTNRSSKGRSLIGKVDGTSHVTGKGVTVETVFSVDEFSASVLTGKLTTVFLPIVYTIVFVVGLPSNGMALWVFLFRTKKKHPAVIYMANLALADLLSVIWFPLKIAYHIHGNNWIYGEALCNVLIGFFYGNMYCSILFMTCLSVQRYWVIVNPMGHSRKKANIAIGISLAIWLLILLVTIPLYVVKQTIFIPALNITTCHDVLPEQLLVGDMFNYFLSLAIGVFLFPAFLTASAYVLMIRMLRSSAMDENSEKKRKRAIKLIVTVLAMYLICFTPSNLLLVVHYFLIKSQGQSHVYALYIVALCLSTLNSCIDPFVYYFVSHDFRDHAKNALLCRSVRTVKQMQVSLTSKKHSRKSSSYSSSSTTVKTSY
How it was run: as §1

[3] = test system: UTP-stimulated Ca2+ response in HT-29 cells; experiment: Ca FLIPR TETRA assay, ANTAGONIST mode, activator 0.6 μM UTP; details: Homo sapiens; for IC50: HT-29 cells, activator 0.6 μM UTP; for inhibition at 50 µM: HT-29
How it was run: as §1

PAR2 (HT-29 cells) [4] = target: T1, PAR2 (HT-29 cells); experiment: Ca FLIPR TETRA assay, ANTAGONIST mode, activator 8 μM SLIGKV; details: HT-29 cells, activator 8 μM SLIGKV; maximal antagonist concentration per Method (A: 0.1, 1 or 2 μM; B: 50 μM)
How it was run: as §1

Compound | IC50 [1] [µM] | IC50 (PAR2 (HT-29 cells) [2]) [µM] | IC50 [3] [µM] | IC50 (PAR2 (HT-29 cells) [4]) [µM] | Trypsin, % @ 50 (PAR2 (HT-29 cells) [2]; @ 50 (μM)) [% @ 50] | inhibition at 50 µM [3] [%]
CC(C)c1cc(-c2ccc(F)cc2)nc2cc(C(=O)N3CCN(C(=O)[C@@H](C)O)C[C@H]3C)oc12 [Example I-98] | 18 | 7 | 20 | 5.3 | – | –
CC(C)c1cc(-c2ccc(F)cc2)nc2cc(C(=O)N3CCN(C(=O)[C@H](O)CC(C)(C)C)C[C@H]3C)oc12 [Example I-99] | 3.9 | 0.43 | – | 0.062 | – | 63
CC(C)c1cc(-c2ccc(F)cc2)nc2cc(C(=O)N3CCN(C(=O)C4(O)CCOCC4)C[C@H]3C)oc12 [Example I-100] | 16 | 11 | 13 | 9.1 | – | –
CC(C)c1cc(-c2ccc(F)cc2)nc2cc(C(=O)N3CCN(C(=O)C(C)(C)O)C[C@H]3C)oc12 [Example I-101] | 18 | 9.1 | 13 | 7.6 | – | –
CC(C)c1cc(-c2ccc(F)cc2)nc2cc(C(=O)N3CCN(C(=O)C4(O)CCC4)C[C@@H]3C)oc12 [Example I-102] | 16 | 5.2 | 5.4 | 4.7 | – | –
CC(C)c1cc(-c2ccc(F)cc2)nc2cc(C(=O)N3CCN(C(=O)[C@@H](C)O)C[C@@H]3C)oc12 [Example I-103] | 29 | 8.5 | 24 | 7.9 | – | –
CC(C)c1cc(-c2ccc(F)cc2)nc2cc(C(=O)N3CCN(C(=O)[C@H](O)CC(C)(C)C)C[C@@H]3C)oc12 [Example I-104] | 2.6 | 0.83 | – | 0.73 | – | 64
CC(C)c1cc(-c2ccc(F)cc2)nc2cc(C(=O)N3CCN(C(=O)C4(O)CCOCC4)C[C@@H]3C)oc12 [Example I-105] | 12 | 7.7 | 15 | 8.7 | – | –
CC(C)c1cc(-c2ccc(F)cc2)nc2cc(C(=O)N3CCN(C(=O)C(C)(C)O)C[C@@H]3C)oc12 [Example I-106] | 15 | 7.7 | 14 | 7.8 | – | –
CCCS(=O)(=O)N1CCN(C(=O)c2cc3nc(-c4ccc(F)cc4)cc(C4(C)CC4)c3o2)C(C)(C)C1 [Example I-107] | > 50 | 0.028 | > 50 | 0.034 | – | –
CCOC(=O)N1CCN(C(=O)c2cc3nc(-c4ccc(F)cc4)cc(C4(C)CC4)c3o2)C(C)(C)C1 [Example I-108] | > 50 | 0.0018 | > 50 | 0.0022 | – | –
C[C@H]1CN(C(=O)c2cc3nc(-c4ccc(F)cc4)cc(C4(C)CC4)c3o2)CCN1C(=O)C(C)(C)O [Example I-109] | 12 | 3.4 | 11 | 2.3 | – | –
CC[C@@H](O)C(=O)N1CCN(C(=O)c2cc3nc(-c4ccc(F)cc4)cc(C4(C)CC4)c3o2)C[C@@H]1C [Example I-110] | 18 | 0.064 | 14 | 0.04 | – | –
C[C@H]1CN(C(=O)c2cc3nc(-c4ccc(F)cc4)cc(C4(C)CC4)c3o2)CCN1C(=O)C(O)C1CC1 (some centres unmarked) [Example I-111] | 19 | 0.041 | 12 | 0.0565 | – | –
CC(C)[C@@H](O)C(=O)N1CCN(C(=O)c2cc3nc(-c4ccc(F)cc4)cc(C4(C)CC4)c3o2)C[C@@H]1C [Example I-112] | 13 | 0.027 | 11 | 0.013 | – | –
CC(C)C[C@@H](O)C(=O)N1CCN(C(=O)c2cc3nc(-c4ccc(F)cc4)cc(C4(C)CC4)c3o2)C[C@@H]1C [Example I-113] | 17 | 0.002 | 12 | 0.011 | – | –
C[C@H]1CN(C(=O)c2cc3nc(-c4ccc(F)cc4)cc(C4(C)CC4)c3o2)CCN1C(=O)C(O)c1ccc(F)cc1 (some centres unmarked) [Example I-114] | 27 | 0.0027 | 30 | 0.0022 | – | –
C[C@H]1CN(C(=O)c2cc3nc(-c4ccc(F)cc4)cc(C4(C)CC4)c3o2)CCN1C(=O)C1CCC1 [Example I-115] | > 50 | 0.092 | – | 0.046 | – | 66
C[C@H]1CN(C(=O)c2cc3nc(-c4ccc(F)cc4)cc(C4(C)CC4)c3o2)CCN1C(=O)C1CC1 [Example I-116] | 13 | 0.99 | 6.9 | 0.35 | – | –

Continued, in another order:

IC50 [1] [µM] | IC50 (PAR2 (HT-29 cells) [2]) [µM] | IC50 [3] [µM] | IC50 (PAR2 (HT-29 cells) [4]) [µM] | Trypsin, % @ 50 (PAR2 (HT-29 cells) [2]; @ 50 (μM)) [% @ 50] | Compound | inhibition at 50 µM [3] [%]
12 | 2.3 | 7.7 | 1.1 | – | C[C@H]1CN(C(=O)c2cc3nc(-c4ccc(F)cc4)cc(C4(C)CC4)c3o2)CCN1C(=O)C1(O)CC1 [Example I-117] | –
9.8 | 0.78 | 6.1 | 0.6 | – | C[C@H]1CN(C(=O)c2cc3nc(-c4ccc(F)cc4)cc(C4(C)CC4)c3o2)CCN1C(=O)C1(C)CC1 [Example I-118] | –
1.4 | 0.56 | 1.6 | 0.62 | – | C[C@H]1CN(C(=O)c2cc3nc(-c4ccc(F)cc4)cc(C4(C)CC4)c3o2)CCN1C(=O)C1(C#N)CC1 [Example I-119] | –
13 | 1.3 | 13 | 0.36 | – | C[C@H]1CN(C(=O)c2cc3nc(-c4ccc(F)cc4)cc(C4(C)CC4)c3o2)CCN1C(=O)C1CCOCC1 [Example I-120] | –
5.5 | 1.8 | 6.3 | 1.1 | – | C[C@H]1CN(C(=O)c2cc3nc(-c4ccc(F)cc4)cc(C4(C)CC4)c3o2)CCN1C(=O)C1(O)CCOCC1 [Example I-121] | –
1.9 | 0.33 | 1.6 | 1 | – | C[C@H]1CN(C(=O)c2cc3nc(-c4ccc(F)cc4)cc(C4(C)CC4)c3o2)CCN1C(=O)c1ccn[nH]1 [Example I-122] | –
4.5 | 0.93 | 4.1 | 0.34 | – | Cc1cc(C(=O)N2CCN(C(=O)c3cc4nc(-c5ccc(F)cc5)cc(C5(C)CC5)c4o3)C[C@@H]2C)n(C)n1 [Example I-123] | –
24 | 1.9 | 23 | 0.94 | – | CC(C)c1nc(-c2ccc(F)cc2)nc2cc(C(=O)N3CCNC(=O)C3(C)C)oc12 [Example I-124] | –
32 | 1.9 | 20 | 0.26 | – | CC(C)c1nc(-c2ccc(F)cc2)nc2cc(C(=O)N3CCN(C(=O)[C@H](O)CC(C)(C)C)[C@@H](C)C3)oc12 [Example I-125] | –
13 | 0.067 | 22 | 0.11 | – | CC(C)c1nc(-c2ccc(F)cc2)nc2cc(C(=O)N3CCN(C(=O)[C@H](O)CC(C)(C)C)CC3(C)C)oc12 [Example I-126] | –
> 50 | – | > 50 | 0.74 | 49 | CC1(c2nc(-c3ccc(F)cc3)nc3cc(C(=O)N4CCNC(=O)C4(C)C)oc23)CC1 [Example I-127] | –
> 50 | 5.3 | 44 | 0.54 | – | C[C@H]1CN(C(=O)c2cc3nc(-c4ccc(F)cc4)nc(C4(C)CC4)c3o2)CCN1C(=O)[C@H](O)CC(C)(C)C [Example I-128] | –
> 50 | 0.27 | > 50 | 0.25 | – | CC(C)(C)C[C@@H](O)C(=O)N1CCN(C(=O)c2cc3nc(-c4ccc(F)cc4)nc(C4(C)CC4)c3o2)C(C)(C)C1 [Example I-129] | –
> 35 | 2.6 | 30 | 2.1 | – | CC(C)c1cc(-c2ccc(F)cc2)nc2sc(C(=O)N3CCN(C(=O)[C@H](O)CC(C)(C)C)[C@@H](C)C3)nc12 [Example I-130] | –
19 | 0.068 | 12 | 0.066 | – | CC(C)c1cc(-c2ccc(F)cc2)nc2sc(C(=O)N3CCNC(=O)C3(C)C)nc12 [Example I-131] | –
> 50 | 0.009 | > 50 | 0.0064 | – | CC(C)c1cc(-c2ccc(F)cc2)nc2sc(C(=O)N3CCN(C(=O)[C@H](O)CC(C)(C)C)CC3(C)C)nc12 [Example I-132] | –
20 | 7.5 | 20 | 5.9 | – | CC(C)c1cc(-c2ccc(F)cc2)nc2oc(C(=O)N3CCNC(=O)C3(C)C)nc12 [Example I-133] | –
> 1 | 0.0009 | > 1 | 0.0006 | – | CC(C)c1cc(-c2ccc(F)cc2)nc2cc(C(=O)N3CCN(C(=O)[C@H]4C[C@](O)(C(F)(F)F)C4)CC3(C)C)oc12 [Example I-134] | –
> 1 | 0.042 | > 1 | 0.024 | – | CC(C)c1cc(-c2ccc(F)cc2)nc2cc(C(=O)N3CCN(C(=O)[C@H]4C[C@@H](O)C4)CC3(C)C)oc12 [Example I-135] | –
